Patent US8324268B2, “Substituted furancarboxamides, and use thereof” (AiCuris GmbH & Co. KG, priority 2008, dated 2012)

Columns and labels:
Type in all cases: cell-based
[1] = tested on: HIV-1LAI; test: H9 assay with wild-type HIV-1 (HIV-1LAI supernatant infection, AlamarBlue); conditions: Human immunodeficiency virus 1, H9 cells, 10% FCS
Description: For the mixture for a 96-well MTP, 3 million PBLs are pelleted, suspended in 1 ml of RPMI 1640 medium/10% FCS and incubated together with a suitable amount of HIV-1LAI (NIH AIDS Research & Reference Reagent Program, Germantown, USA) at 37° C. for 2 hours (pellet infection). Unadsorbed viruses are subsequently washed out with PBS, and the infected cells are pelleted again and suspended in 18 ml of RPMI 1640 medium/10% FCS/interleukin-2 (40 U/ml). 180 μl thereof are pipetted into each well of a white 96-well MTP with 20 μl of test substance in suitable dilution. Alternatively, after preparation of the substance dilutions in the MTP, the HIV is pipetted in together with the cells and is not washed out again (supernatant infection). In order to avoid edge effects, the wells at the edge of the MTP are not used for substance dilutions. The second vertical row of the MTP contains only infected cells (virus control) and the eleventh vertical row only uninfected cells (cell control), in each case in RPMI 1640 medium/10% FCS/interleukin-2 (40 U/ml). The other wells of the MTP contain the compounds of the invention in various concentrations starting from the third vertical row, from which the test substances are diluted in 3-fold steps up to the tenth vertical row 3^7-fold. The test substances are dissolved in DMSO, whereby the final DMSO concentration in the test mixture is 1%. The test mixtures are incubated at 37° C./5% CO2. After 5 and 7 days, 50 μl of cell-free supernatant are removed from each well to determine the amount of p24 present by means of a p24 ELISA (HIV-1 p24^CA Antigen Capture Assay Kit, NCI-Frederick Cancer Research and Development Center, Frederick, USA). From the resulting values of the photometric evaluation (450/620 nm) the EC50 values of the test substances are determined as the concentration at which the amount of p24 is 50% of the untreated infected cells.
Alternatively, H9 cells (ATCC, Wesel, Germany) are employed instead of PBLs for testing the test substances. H9 cells are incubated in RPMI 1640 medium with 2% or 10% FCS as a HIV-ILAI supernatant infection at 37° C./5% CO2, (20 μl of substance dilution and 80 μl of cells/virus per well) in accordance with the pattern described above for 5 days. Subsequently, 10 μl of AlamarBlue® (Invitrogen, Karlsruhe, Germany) are added to each well, and the MTPs are incubated at 37° C. for 3 hours before the fluorimetric evaluation takes place (544/590 nm). The resulting values are about 40 000 for the untreated uninfected cells and about 7000 for the untreated infected cells. In the low concentration range, the EC50 values of the test substances are determined as the concentration at which the fluorescence is 50% of the untreated uninfected cells (in each case subtracting the values of the untreated infected cells). In addition, in the high concentration range, the CC50 values of the test substances are determined as the concentration at which the fluorescence is 50% of the untreated uninfected cells (in each case subtracting the values of the untreated infected cells).

[2] = tested on: HIV-1NL4-3 wt; test: Light assay with wild-type HI reporter virus in MT4 7F2 cells; conditions: Human immunodeficiency virus 1, 2% FCS
Description: (§1) For the mixture for a 96-well MTP, 3 million MT4 7F2 cells are pelleted, suspended in 1 ml of RPMI 1640 medium without phenol red (Invitrogen, Karlsruhe, Germany)/10% FCS/10% AIM-V (Invitrogen, Karlsruhe, Germany) and incubated together with a suitable amount of the corresponding HIV-1NL4-3 reporter virus at 37° C. for 2 hours (pellet infection). Unadsorbed viruses are subsequently washed out with PBS, and the infected cells are pelleted again and suspended in 8 ml of RPMI 1640 medium without phenol red/2% or 10% FCS/10% AIM-V. 80 μl thereof are pipetted into each well of a white 96-well MTP with 20 μl of test substance in suitable dilution. To avoid edge effects, the wells on the edge of the MTP are not used for substance dilutions. The second vertical row of the MTP contains only infected cells (virus control) and the eleventh vertical row only uninfected cells (cell control), in each case in RPMI 1640 medium without phenol red/2% or 10% FCS/10% AIM-V. The other wells of the MTP contain the compounds of the invention in various concentrations starting from the third vertical row, from which the test substances are diluted in 3-fold steps up to the tenth vertical row 3^7-fold. The test substances are dissolved in DMSO, whereby the final DMSO concentration in the test mixture is 1%. The test mixtures are incubated at 37° C./5% CO2 for five days and, after the addition of 15 μl of Lu164 substrate (5 mg/ml coelenterazine dissolved in 30 μM glutathione/DMSO, 100 mM NaCl, 1M MES, 100 mM glutathione), evaluated by luminometry. The resulting values are in the region of 1 000 000 RLUs (relative light units) for the virus control and 300 to 400 RLUs for the cell control. The EC50 values of the test substances are determined as the concentration at which the virus replication measured in RLUs is 50% of the untreated infected cells.

[3] = tested on: HIV-1NL4-3 K103N-Y181C; test: Light assay with inhibitor-resistant HI reporter virus in MT4 7F2 cells; conditions: Human immunodeficiency virus 1, read-out: EC50 (nM) MT4 7F2 cells HIV-1NL4-3 K103N-Y181C 2% FCS
Description: as §1

Row | Structure (SMILES) | EC50 [1] [nM] | EC50 [2] [nM] | EC50 [3] [nM]
1 | N#Cc1cccc(-c2oc(C(=O)N3CCSC3)cc2-c2cc(F)cc(Cl)c2)c1 [Example 1, 3-[3-(3-Chloro-5-fluorophenyl)-5-(1,3-thiazolidin-3-ylcarbonyl)furan-2-yl]benzenecarbonitrile] | 65 | 4.5 | 550
2 | O=C(c1cc(-c2cc(F)cc(Cl)c2)c(-c2ccc(F)c(Cl)c2)o1)N1CCSC1 [Example 2, [5-(3-Chloro-4-fluorophenyl)-4-(3-chloro-5-fluorophenyl)furan-2-yl](1,3-thiazolidin-3-yl)methanone] | 135 | 40 | 1620
3 | N#Cc1cccc(-c2oc(C(=O)N3CC[S+]([O-])C3)cc2-c2cc(F)cc(Cl)c2)c1 (stereo not drawn) [Example 3, 3-{3-(3-Chloro-5-fluorophenyl)-5-[(1-oxido-1,3-thiazolidin-3-yl)carbonyl]furan-2-yl}benzenecarbonitrile] | 4.5 | < 1.5 | 160
4 | O=C(c1cc(-c2cc(F)cc(Cl)c2)c(-c2ccc(F)c(Cl)c2)o1)N1CC[S+]([O-])C1 (stereo not drawn) [Example 4, [5-(3-Chloro-4-fluorophenyl-1)-4-(3-chloro-5-fluorophenyl)furan-2-yl](1-oxido-1,3-thiazolidin-3-yl)methanone] | 12 | < 1.5 | 261
5 | N#Cc1cccc(-c2oc(C(=O)N3CCS(=O)(=O)C3)cc2-c2cc(F)cc(Cl)c2)c1 [Example 5, 3-{3-(3-Chloro-5-fluorophenyl)-5-[(1,1-dioxido-1,3-thiazolidin-3-yl)carbonyl]furan-2-yl}benzenecarbonitrile] | 17.5 | < 1.5 | 305
6 | O=C1CN(C(=O)c2cc(-c3cccc(Cl)c3)c(-c3ccc(F)cc3)o2)CCN1 [Example 6, 4-{[4-(3-Chlorophenyl)-5-(4-fluorophenyl)furan-2-yl]carbonyl}piperazin-2-one] | 400 | 48 | 283
7 | O=C1CN(C(=O)c2cc(-c3cc(F)cc(Cl)c3)c(-c3ccc(F)c(Cl)c3)o2)CCN1 [Example 7, 4-{[5-(3-Chloro-4-fluorophenyl)-4-(3-chloro-5-fluorophenyl)furan-2-yl]carbonyl}piperazin-2-one] | 46 | 5 | 186
8 | N#Cc1cccc(-c2oc(C(=O)N3CCNC(=O)C3)cc2-c2cc(F)cc(Cl)c2)c1 [Example 8, 3-{3-(3-Chloro-5-fluorophenyl)-5-[(3-oxopiperazin-1-yl)carbonyl]furan-2-yl}benzenecarbonitrile] | 7 | 1 | 160
9 | O=C(c1cc(-c2cc(F)cc(Cl)c2)c(-c2ccc(F)c(Cl)c2)o1)N1CCOCC1 [Example 9, [5-(3-Chloro-4-fluorophenyl)-4-(3-chloro-5-fluorophenyl)furan-2-yl](morpholin-4-yl)methanone] | 100 | 19 | 500
10 | N#Cc1cccc(-c2oc(C(=O)N3CC[C@@H](O)C3)cc2-c2cc(F)cc(Cl)c2)c1 [Example 10, 3-[3-(3-Chloro-5-fluorophenyl)-5-{[(3R)-3-hydroxypyrrolidin-1-yl]carbonyl}furan-2-yl]benzenecarbonitrile] | 14 | 1 | 183
11 | N#Cc1cccc(-c2oc(C(=O)N3CNC(=O)C3)cc2-c2cc(F)cc(Cl)c2)c1 [Example 12, 3-{3-(3-Chloro-5-fluorophenyl)-5-[(4-oxoimidazolidin-1-yl)carbonyl]furan-2-yl}benzenecarbonitrile] | 30 | 2 | 163
12 | O=C1CN(C(=O)c2cc(-c3cc(Cl)ccc3F)c(-c3cccc(Cl)c3)o2)CCN1 [Example 13, 4-{[4-(5-Chloro-2-fluorophenyl)-5-(3-chlorophenyl)furan-2-yl]carbonyl}piperazin-2-one] | 160 | 15 | 325
13 | O=C1CN(C(=O)c2cc(-c3cc(F)cc(Cl)c3)c(-c3cccc(Cl)c3)o2)CCN1 [Example 14, 4-{[4-(3-Chloro-5-fluorophenyl)-5-(3-chlorophenyl)furan-2-yl]carbonyl}piperazin-2-one] | 52 | 1 | 173
14 | O=C1CN(C(=O)c2cc(-c3cc(F)cc(F)c3)c(-c3cccc(Cl)c3)o2)CN1 [Example 15, 1-{[5-(3-Chlorophenyl-1)-4-(3,5-difluorophenyl)furan-2-yl]carbonyl}imidazolidin-4-one] | 110 | 9 | 350
15 | O=C1CN(C(=O)c2cc(-c3cc(F)cc(Cl)c3)c(-c3cccc(Cl)c3)o2)CN1 [Example 16, 1-{[4-(3-Chloro-5-fluorophenyl)-5-(3-chlorophenyl)furan-2-yl]carbonyl}imidazolidin-4-one] | 75 | 2 | 200
16 | O=C1CN(C(=O)c2cc(-c3cc(F)cc(F)c3)c(-c3cccc(Cl)c3)o2)CCN1 [Example 17, 4-{[5-(3-Chlorophenyl)-4-(3,5-difluorophenyl)furan-2-yl]carbonyl}piperazin-2-one] | 135 | 6 | 350
17 | Cc1cccc(-c2oc(C(=O)N3CCNC(=O)C3)cc2-c2cccc(Cl)c2)c1 [Example 18, 4-{[4-(3-Chlorophenyl)-5-(3-methylphenyl)furan-2-yl]carbonyl}piperazin-2-one] | 200 | 45 | 300
18 | O=C1CN(C(=O)c2cc(-c3cccc(Cl)c3)c(-c3ccc(F)c(F)c3)o2)CCN1 [Example 19, 4-{[4-(3-Chlorophenyl)-5-(3,4-difluorophenyl)furan-2-yl]carbonyl}piperazin-2-one] | 250 | 43 | 450
19 | N#Cc1cccc(-c2oc(C(=O)N3CCNC(=O)C3)cc2-c2cccc(Cl)c2)c1 [Example 20, 3-{3-(3-Chlorophenol)-5-[(3-oxopiperazin-1-yl)carbonyl]furan-2-yl}benzenecarbonitrile] | 50 | 2 | 137
20 | Cc1cc(-c2oc(C(=O)N3CCNC(=O)C3)cc2-c2cccc(Cl)c2)ccc1F [Example 21, 4-{[4-(3-Chlorophenyl)-5-(4-fluor-3-methylphenyl)furan-2-yl]carbonyl}piperazin-2-one] | 200 | 15 | 120
21 | O=C1CN(C(=O)c2cc(-c3cccc(Cl)c3)c(-c3ccc(F)c(Cl)c3)o2)CCN1 [Example 22, 4-{[5-(3-Chloro-4-fluorophenyl)-4-(3-chlorophenyl)furan-2-yl]carbonyl}piperazin-2-one] | 113 | 7 | 185
